This is an account of results in ChEMBL document CHEMBL3091422, “Endothelial lipase inhibitors for the treatment of atherosclerosis and cardiovascular disorders” (ACS Med Chem Lett, 2013).

The structures appear in SMILES notation.

Test [1] has as its target T1, Endothelial lipase (Mus musculus, UniProt Q9WVG5).
T1 sequence (Q9WVG5 whole entry): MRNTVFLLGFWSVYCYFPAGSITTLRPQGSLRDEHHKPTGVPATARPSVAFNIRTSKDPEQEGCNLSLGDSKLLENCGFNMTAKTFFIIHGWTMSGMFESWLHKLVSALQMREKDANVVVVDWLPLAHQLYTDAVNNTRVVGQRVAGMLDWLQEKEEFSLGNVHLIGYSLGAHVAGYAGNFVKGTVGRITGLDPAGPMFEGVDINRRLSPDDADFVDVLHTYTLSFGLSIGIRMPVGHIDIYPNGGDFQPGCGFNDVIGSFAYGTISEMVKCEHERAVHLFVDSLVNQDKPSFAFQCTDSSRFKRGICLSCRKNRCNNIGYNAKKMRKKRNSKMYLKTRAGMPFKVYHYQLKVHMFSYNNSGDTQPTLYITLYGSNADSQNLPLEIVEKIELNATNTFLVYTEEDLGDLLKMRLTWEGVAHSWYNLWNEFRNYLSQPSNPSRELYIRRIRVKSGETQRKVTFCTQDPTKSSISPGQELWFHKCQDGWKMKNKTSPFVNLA
Briefly: Inhibition of mouse endothelial lipase using PLAi as substrate measured for 30 mins by cell-based fluorescence assay.

The target in test [2] is T2, Endothelial lipase (Homo sapiens, UniProt Q9Y5X9).
T2 sequence (Q9Y5X9 whole entry): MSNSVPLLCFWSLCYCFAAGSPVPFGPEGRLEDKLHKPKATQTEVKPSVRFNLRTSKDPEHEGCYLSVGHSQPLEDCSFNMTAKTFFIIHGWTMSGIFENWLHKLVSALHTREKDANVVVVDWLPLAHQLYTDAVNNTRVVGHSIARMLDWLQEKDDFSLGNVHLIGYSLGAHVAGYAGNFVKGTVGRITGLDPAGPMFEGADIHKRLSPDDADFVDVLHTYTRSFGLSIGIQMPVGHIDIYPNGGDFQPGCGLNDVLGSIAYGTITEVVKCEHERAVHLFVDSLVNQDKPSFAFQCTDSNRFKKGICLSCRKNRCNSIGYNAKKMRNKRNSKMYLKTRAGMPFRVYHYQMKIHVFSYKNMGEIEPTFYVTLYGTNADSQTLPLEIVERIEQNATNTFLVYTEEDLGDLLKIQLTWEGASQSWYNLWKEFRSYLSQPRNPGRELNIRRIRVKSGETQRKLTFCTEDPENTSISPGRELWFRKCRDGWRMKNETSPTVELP
Briefly: Inhibition of human endothelial lipase using PLAi as substrate measured for 30 mins by cell-based fluorescence assay.

`COc1cc2c3c(c1)c(C(F)(F)F)c(CCc1ccccc1)n3CCC2`: the figures for the IC50 in test [1] and in test [2] were 17 nM and 14 nM, respectively.
As to `FC(F)(F)c1c(CCCc2ccccc2)n2c3c(cccc13)SCC2`, the IC50 in test [1] and in test [2] was 33300 nM each time.
As to `Nc1cc2c3c(c1)c(C(F)(F)F)c(CCCc1ccccc1)n3CCC2`, the IC50 in test [1] and in test [2] was 4 nM in each case.

For orientation: IC50 means the concentration that gives 50% inhibition. Higher therefore signals weaker potency.
